How the values were obtained:
Human whole blood = assay: Human Whole Blood Assay (LPS induced PGE2 production); assay type: cell-based; conditions: LPS 100 μg/mL, 20-24 hours, PGE2 by LC/MS/MS, read-out: PGE2 Inhibition. IC50 (μM, mean ± std. dev.)
Protocol: Blood is collected from normal volunteer donors into sodium heparin vacutainer tubes. Donors are selected, in part, on their confirmation that they have not taken NSAIDs, aspirin, Celebrex, or glucocorticoids within two weeks of the donation. All tubes/donor are pooled into 250 mL Corning conical centrifuge tubes and 436.5 μL/well is distributed into deep well polypropylene plates. Compounds are diluted in DMSO to 100× final and 4.5 μL/well in duplicate or triplicate is added to give 7 point curves. […] One hundred microliters is quantitatively transferred to Costar cluster tubes blocks and 400 μL/well of the methanol stop reagent and internal standards, d-4PGE2, d-4PGF2α, and d-4TX2β are added. […]
Solid phase extraction is performed using Waters HLB 30 mg/bed 96 well plates on a vacuum manifold: 1) the matrix is washed with methanol (1 mL), followed by 0.1% formic acid in water (1 mL); 2) 400 μL sample is applied along with 0.1% formic acid in water (900 μL) and allowed to bind for 5 minutes; 3) the matrix is washed with 0.1% formic acid in water (600 μL), followed by 80/20 water/methanol (600 μL); 4) the products are eluted with 2-500 μL volumes of ethyl acetate; 5) the samples are dried under nitrogen and reconstituted in 75/25 water/acetonitrile with 0.1% formic acid (50 μL). The products were analyzed by LC/MS/MS. […]

[1] = system: Human epithelial lung carcinoma cell line A549; assay: Cell Based Assay for Measuring Eicosanoid Selectivity (rhIL-1β induced PGE2 in A549 cells); conditions: rhIL-1β 0.1-0.2 ng/mL, approximately 18 hours, PGE2 by EIA, read-out: PGE2 Inhibition. IC50 (μM, mean ± std. dev.)
Protocol: Human epithelial lung carcinoma cell line A549 is obtained from ATCC (CCL-185) and is maintained in Kaighn's F12 (“F12K”)+10% fetal bovine serum, (FBS) (plating medium), and 5% CO2. The cells are passaged at 1:3 twice per week.
For assay, cells are released from flasks by washing once with phosphate buffered saline (PBS), then once with Trypsin/EDTA. After 3-5 minutes at 37° C., the cells are suspended in 10 mL of plating medium and centrifuged at 2000 rpm, 25° C., for 5 minutes. The supernatant is aspirated and the cell pellet is resuspended in 10 mL F12K. Cell number is determined by counting an aliquot of cells which has been diluted in PBS and Trypan blue on a hemocytometer. Cells are plated at 40,000/well in 96 well Falcon plates 24 hours prior to treatment. Compounds are diluted in DMSO to 100× of the final concentration in Screen Mates tubes. The medium is removed from the cells and fresh medium (90 μL/well) is added to the cells. […] The plates are incubated at room temperature for 30-45 minutes and then read on a plate reader at A490 to determine viability. […]
The conditioned medium is assayed for levels of PGE2 and PGI2 by specific enzyme immune-assays (EIAs), according to the manufacturer's protocols (Cayman). […] After approximately 45 minutes at room temperature on an orbital shaker at 100 rpm, the plates are read at A412 on a plate reader. […]

## CC(C)(C)C(=O)NCc1ccc(Br)c(C(=O)Nc2ncc[nH]2)c1 [Example 5, 2-Bromo-5-[(2,2-dimethylpropanoylamino)methyl]-N-(1H-imidazol-2-yl)benzamide]
Human whole blood
  IC50: 0.607 ± 0.502 µM
[1]
  IC50: 0.19 µM

Source: US8252831B2, “Imidazole-2-benzamide compounds useful for the treatment of osteoarthritis” (Eli Lilly and Company, priority 2010, dated 2012)
